In ChEMBL document CHEMBL2424644, “Synthesis and antiproliferative evaluation of novel benzoimidazole-contained oxazole-bridged analogs of combretastatin A-4” (Eur J Med Chem, 2013):

Assays:
HepG2 = experiment: Cytotoxicity against human HepG2 cells assessed as growth inhibition after 72 hrs by MTT assay; type: functional, cell-based; details: HepG2, 72 h
BXPC-3 [1] = experiment: Cytotoxicity against human BxPC3 cells assessed as growth inhibition after 72 hrs by MTT assay; type: functional, cell-based; details: BXPC-3, 72 h
HT-29 [2] = experiment: Cytotoxicity against human HT-29 cells assessed as growth inhibition after 72 hrs by MTT assay; type: functional, cell-based; details: HT-29, 72 h
MCF7 [3] = experiment: Cytotoxicity against human MCF7 cells assessed as growth inhibition after 72 hrs by MTT assay; type: functional, cell-based; details: MCF7, 72 h
A549 = experiment: Cytotoxicity against human A549 cells assessed as growth inhibition after 72 hrs by MTT assay; type: functional, cell-based; details: A549, 72 h
H22 [4] = experiment: Antitumor activity against mouse H22 cells allografted in KM mouse assessed as tumor growth inhibition at 20 mg/kg, ip administered on day 1 measured on day 8 relative to control; type: functional; details: route intraperitoneal, read-out: TGI
HT-29 [5] = experiment: Cell cycle arrest in human HT-29 cells assessed as accumulation at G0/G1 phase at 12.5 nM after 24 hrs by propidium iodide staining-based flow cytometric analysis (reference value: 68.24%); type: functional
HT-29 [6] = experiment: Cell cycle arrest in human HT-29 cells assessed as accumulation at S phase at 100 nM after 24 hrs by propidium iodide staining-based flow cytometric analysis (reference value: 24.39%); type: functional
MX1 [7] = experiment: Cytotoxicity against taxol-resistant human MX1 cells assessed as growth inhibition after 72 hrs by MTT assay; type: functional, cell-based; details: MX1, 72 h
KB [8] = experiment: Cytotoxicity against human KB cells assessed as growth inhibition after 72 hrs by MTT assay; type: functional, cell-based
HT-29 [9] = experiment: Cell cycle arrest in human HT-29 cells assessed as accumulation at G2/M phase at 12.5 nM after 24 hrs by propidium iodide staining-based flow cytometric analysis (reference value: 7.37%); type: functional
MCF7 [10] = experiment: Potency index, ratio of combretastatin A-4 IC50 to compound IC50 for human MCF7 cells; type: functional
H22 [11] = experiment: Antitumor activity against mouse H22 cells allografted in KM mouse assessed as tumor growth inhibition at 15 mg/kg, ip administered on day 1 and 4 measured on day 8 relative to control; type: functional; details: route intraperitoneal, read-out: TGI
HT-29 [12] = experiment: Cell cycle arrest in human HT-29 cells assessed as accumulation at G2/M phase at 50 nM after 24 hrs by propidium iodide staining-based flow cytometric analysis (reference value: 7.37%); type: functional
HT-29 [13] = experiment: Cell cycle arrest in human HT-29 cells assessed as accumulation at G0/G1 phase at 100 nM after 24 hrs by propidium iodide staining-based flow cytometric analysis (reference value: 68.24%); type: functional
HT-29 [14] = experiment: Cell cycle arrest in human HT-29 cells assessed as accumulation at G0/G1 phase at 50 nM after 24 hrs by propidium iodide staining-based flow cytometric analysis (reference value: 68.24%); type: functional
KB [15] = experiment: Cytotoxicity against vincristine-resistant human KB cells assessed as growth inhibition after 72 hrs by MTT assay; type: functional, cell-based
HT-29 [16] = experiment: Cell cycle arrest in human HT-29 cells assessed as accumulation at G2/M phase at 100 nM after 24 hrs by propidium iodide staining-based flow cytometric analysis (reference value: 7.37%); type: functional
Mus musculus [17] = experiment: Toxicity in KM mouse allografted with mouse H22 cells assessed as body weight at 7.5 mg/kg, ip administered on day 1 to 7 measured on day 8 (reference value: 30 +/- 3.24 g); type: organism-based; parameters: dose 7.5 mg/kg, route intraperitoneal; details: in vivo
H22 [18] = experiment: Antitumor activity against mouse H22 cells allografted in KM mouse assessed as tumor growth inhibition at 10 mg/kg, ip administered on day 1, 3, 5, 7 measured on day 8 relative to control; type: functional; details: route intraperitoneal, read-out: TGI
HT-29 [19] = experiment: Cell cycle arrest in human HT-29 cells assessed as accumulation at G2/M phase after 24 hrs by propidium iodide staining-based flow cytometric analysis; type: functional
Mus musculus [20] = experiment: Toxicity in KM mouse allografted with mouse H22 cells assessed as body weight at 20 mg/kg, ip administered on day 1 measured on day 8 (reference value: 30 +/- 3.24 g); type: organism-based; parameters: dose 20 mg/kg, route intraperitoneal; details: in vivo
BXPC-3 [21] = experiment: Potency index, ratio of vincristine IC50 to compound IC50 for human BxPC3 cells; type: functional
HT-29 [22] = experiment: Cell cycle arrest in human HT-29 cells assessed as accumulation at S phase at 50 nM after 24 hrs by propidium iodide staining-based flow cytometric analysis (reference value: 24.39%); type: functional
HT-29 [23] = experiment: Cell cycle arrest in human HT-29 cells assessed as accumulation at S phase at 12.5 nM after 24 hrs by propidium iodide staining-based flow cytometric analysis (reference value: 24.39%); type: functional
Mus musculus [24] = experiment: Toxicity in KM mouse allografted with mouse H22 cells assessed as body weight at 10 mg/kg, ip administered on day 1, 3, 5, 7 measured on day 8 (reference value: 30 +/- 3.24 g); type: organism-based; parameters: dose 10 mg/kg, route intraperitoneal; details: in vivo
H22 [25] = experiment: Antitumor activity against mouse H22 cells allografted in KM mouse assessed as tumor growth inhibition at 7.5 mg/kg, ip administered on day 1 to 7 measured on day 8 relative to control; type: functional; details: route intraperitoneal, read-out: TGI
Mus musculus [26] = experiment: Toxicity in KM mouse allografted with mouse H22 cells assessed as body weight at 15 mg/kg, ip administered on day 1 and 4 measured on day 8 (reference value: 30 +/- 3.24 g); type: organism-based; parameters: dose 15 mg/kg, route intraperitoneal; details: in vivo
Tubulin = experiment: Inhibition of tubulin (unknown origin) polymerization measured for 60 mins; type: protein-complex assay, Homo sapiens
MX1 [27] = experiment: Cytotoxicity against human MX1 cells assessed as growth inhibition after 72 hrs by MTT assay; type: functional, cell-based; details: MX1, 72 h
HT-29 [28] = experiment: Potency index, ratio of combretastatin A-4 IC50 to compound IC50 for human HT-29 cells; type: functional

## COC(=O)c1sccc1S(=O)(=O)n1cnc2c(-c3ocnc3-c3cc(OC)c(OC)c(OC)c3)ccc(OC)c21
HepG2
  IC50: 134 nM
BXPC-3 [1]
  IC50: 941 nM
HT-29 [2]
  IC50: 163 nM
MCF7 [3]
  IC50: 435 nM
A549
  IC50: 2510 nM

## COc1cc(-c2ncoc2-c2ccc(OC)c3ncn(C)c23)cc(OC)c1OC
HepG2
  IC50: 200 nM
BXPC-3 [1]
  IC50: 220 nM
HT-29 [2]
  IC50: 52 nM
MCF7 [3]
  IC50: 41 nM
A549
  IC50: 37 nM

## CCOC(=O)Cn1cnc2c(OC)ccc(-c3ocnc3-c3cc(OC)c(OC)c(OC)c3)c21
HepG2
  IC50: 500 nM
BXPC-3 [1]
  IC50: > 500 nM
HT-29 [2]
  IC50: 350 nM
MCF7 [3]
  IC50: 419 nM
A549
  IC50: 23.4 nM

## COc1cc(-c2ncoc2-c2ccc(OC)c3[nH]cnc23)cc(OC)c1OC
H22 [4]
  inhibition in vivo at 20 mg/kg: 42%
HT-29 [5]
  Activity: 50.29%
BXPC-3 [1]
  IC50: 31 nM
HT-29 [2]
  IC50: 8.4 nM
HT-29 [6]
  Activity: 30.04%
MX1 [7]
  IC50: 249 nM
KB [8]
  IC50: 16 nM
HT-29 [9]
  Activity: 14.75%
MCF7 [10]
  Ratio IC50: 8
H22 [11]
  inhibition in vivo at 15 mg/kg: 66%
HT-29 [12]
  Activity: 35.63%
HT-29 [13]
  Activity: 25.71%
HT-29 [14]
  Activity: 29.54%
KB [15]
  IC50: 65 nM
HT-29 [16]
  Activity: 44.25%
Mus musculus [17]
  Activity: 25.5 g
H22 [18]
  inhibition in vivo at 10 mg/kg: 52%
HT-29 [19]
  Activity: Dose-dependent effect
Mus musculus [20]
  Activity: 30.4 g
BXPC-3 [21]
  Ratio IC50: 16
HT-29 [22]
  Activity: 34.83%
MCF7 [3]
  IC50: 25 nM
HT-29 [23]
  Activity: 24.97%
Mus musculus [24]
  Activity: 28.4 g
H22 [25]
  inhibition in vivo at 7.5 mg/kg: 55%
Mus musculus [26]
  Activity: 24.4 g
Tubulin
  IC50: 390 nM
MX1 [27]
  IC50: 397 nM
HT-29 [28]
  Ratio IC50: 32

## COc1cc(-c2ncoc2-c2ccc(OC)c3c2ncn3CCCO)cc(OC)c1OC
HepG2
  IC50: 410 nM
HT-29 [2]
  IC50: 2220 nM
MX1 [7]
  IC50: 21100 nM
KB [8]
  IC50: 406 nM
KB [15]
  IC50: > 10000 nM
MCF7 [3]
  IC50: 2110 nM
MX1 [27]
  IC50: > 10000 nM

## COc1cc(-c2ncoc2-c2ccc(OC)c3c2ncn3CC#N)cc(OC)c1OC
HepG2
  IC50: 77 nM
BXPC-3 [1]
  IC50: 2190 nM
HT-29 [2]
  IC50: 190 nM
MCF7 [3]
  IC50: 89 nM
A549
  IC50: 2600 nM

## CCOC(=O)Cn1cnc2c(-c3ocnc3-c3cc(OC)c(OC)c(OC)c3)ccc(OC)c21
HepG2
  IC50: > 500 nM
BXPC-3 [1]
  IC50: > 500 nM
HT-29 [2]
  IC50: > 500 nM
MCF7 [3]
  IC50: > 500 nM
A549
  IC50: > 500 nM

## COc1cc(-c2ncoc2-c2ccc(OC)c3c2ncn3CC(=O)O)cc(OC)c1OC
HepG2
  IC50: > 5000 nM
BXPC-3 [1]
  IC50: > 5000 nM
HT-29 [2]
  IC50: > 5000 nM
MCF7 [3]
  IC50: > 5000 nM
A549
  IC50: > 5000 nM

## COc1cc(-c2ncoc2-c2ccc(OC)c3c2ncn3CC(N)=O)cc(OC)c1OC
HepG2
  IC50: 990 nM
HT-29 [2]
  IC50: > 10000 nM
MCF7 [3]
  IC50: > 10000 nM

## COc1cc(-c2ncoc2-c2ccc(OC)c3ncn(CC#N)c23)cc(OC)c1OC
HepG2
  IC50: 870 nM
BXPC-3 [1]
  IC50: 1390 nM
HT-29 [2]
  IC50: 1600 nM
MCF7 [3]
  IC50: 2050 nM
A549
  IC50: > 5000 nM
